# Laboratory results from patent US7799778B1, “5-substituted 2-aminopyridine analogs for treating allergic and inflammatory diseases” (Alcon, Inc., priority 2005, dated 2010).
# Molecular target: Syk (h) (Homo sapiens, UniProt P43405)
# Assay: Syk kinase activity (inhibition) assay, 33P-ATP filter assay
# Type: biochemical
# Conditions: 10 μM test agent; Syk (h) 5-10 mU; 40 minutes at room temperature
# Description: In a final reaction volume of 25 μl, Syk (h) (5-10 mU) is incubated with 50 mM Tris pH 7.5, […], 0.1 mM Na3VO4, 0.1% β-mercaptoethanol, 0.1 mg/mL poly (Glu, Tyr) 4:1, 10 μM test agent, 10 mM Mg Acetate and [γ-^33P-ATP] (specific activity approximately 500 cpm/pmol, concentration as required). The reaction is initiated by the addition of the MgATP mix. After incubation for 40 minutes at room temperature, the reaction is stopped by the addition of 5 μl of a 3% phosphoric acid solution. 10 μl of the reaction is then spotted onto a Filtermat A and washed three times for 5 minutes in 75 mM phosphoric acid and once in methanol prior to drying and scintillation counting. Percent inhibition was calculated using the following formula:
# % Control=((sample-mean no enzyme)/(mean plus enzyme−mean no enzyme))×100.
row,SMILES,inhibition at 10 µM [%]
1,CN(C)CCN1CCN(c2ccc(-c3cc(C(F)(F)F)cc(C(F)(F)F)c3)cn2)CC1,56
2,CN(C)CCN(C)c1ccc(-c2ccc(Cl)cc2)cn1,51
3,COc1cc(-c2ccc(N3CCN(CCN4CCCC4)CC3)nc2)cc(OC)c1OC,37
4,Fc1ccc(-c2ccc(N3CCN(CCN4CCCC4)CC3)nc2)c(F)c1,36
5,COc1cc(-c2ccc(N3CCN(CCN(C)C)CC3)nc2)cc(OC)c1OC,36
6,CN(C)CCN1CCN(c2ccc(/C=C/c3ccccc3)cn2)CC1,36
7,COc1cncc(-c2ccc(N3CCOCC3)nc2)c1,36
8,Oc1cccc(-c2ccc(N3CCOCC3)nc2)c1,35
9,Fc1ccc(-c2ccc(N3CCOCC3)nc2)c(F)c1,34
10,CN(C)CCN1CCN(c2ccc(-c3ccc(OC(F)(F)F)cc3)cn2)CC1,30

# Second part, the compound after the results:
row,inhibition at 10 µM [%],SMILES
1,45,CN(C)CCN(C)c1ccc(-c2cccc(N(C)C)c2)cn1
2,45,CN(C)CCN(C)c1ccc(-c2ccc(F)cc2F)cn1
3,42,CCOc1cccc(-c2ccc(N(C)CCN(C)C)nc2)c1
4,38,CCCC/C=C/c1ccc(N2CCN(CCN3CCCC3)CC2)nc1
5,32,c1cc(N2CCN(CCN3CCCC3)CC2)ncc1-c1ccc2c(c1)OCO2
6,31,CCCC/C=C/c1ccc(N2CCN(CCN(C)C)CC2)nc1
